# In patent EP0594651B1, “DRIED BLOOD CELLS AND METHOD OF PREPARATION” (QUADRANT HOLDINGS CAMBRIDGE LIMITED, priority 1991, dated 1993):
# Tests used:
# erythrocytes [1] = experiment: Erythrocytes incubated in an organic osmolyte, freeze-dried, rehydrated in PBS with 40% glucopyranosyl sorbitol; intact erythrocytes counted microscopically (Example 1); format: cell-based; details: for % Intact Cells: incubated 2 hours at 37°C, freeze-dried; for freeze drying of erythrocytes: result in words
# Experimental: Whole blood was collected by venepuncture into the anticoagulant EDTA (used at a final concentration of 5mM), and then incubated for 2 hours at 37°C in one of the following osmolytes: proline, carnitine and betaine, over a range of concentrations. The samples were then frozen into a thin shell on the walls of the vessel and then placed under vacuum for drying. The vacuum was typically less than 25 µm Hg ([…]), and the samples were held under this vacuum for approxiamtely 16 hours.
# The freeze-dried samples were rehydrated by resuspending some of the dry material in an hypertonic solution consisting of phosphate buffered saline (PBS) containing glucopyranosyl sorbitol at a concentration of 40%. The samples were then assesed microscopically to determine the number of intact erythrocytes.
# erythrocytes [2] = experiment: Freeze-dried erythrocytes rehydrated with solution A, then PBS; integrity assessed microscopically (Example 2); format: cell-based; details: then equivalent amount of PBS
# Experimental: After the dehydrated samples were resuspended fully, an equivalent amount of PBS was added, and the integrity of the erythrocytes were assessed microscopically.
# erythrocytes [3] = experiment: Freeze-dried blood rehydrated with solution A and PBS; intact cells assessed by fluorescein dye exclusion (Example 4); format: cell-based
# Experimental: The solutions were incubated at 37°C for 2 hours and then frozen onto the walls of a […] in a thin shell by first immersing the flask while rotating it, in a mixture of solid carbon dioxide and methylated spirits. […] The blood was dried under this vacuum for at least 16 hours. […] The dry blood was rehydrated with 1 volume of solution A (see Example 2), and when all the dry blood was resuspended, an equivalent volume PBS was added.
# red cells = red cells dried in proline plus sugar 10% (w/v), stored at room temperature for 3 months
# Experimental: Fresh blood was withdrawn by venepuncture from healthy volunteers into the anti-coagulant EDTA (final concentration 5mM). The blood was centifuged and then washed 3 to 4 times in a potassium free buffered salt solution which contains the following ingredients: Table 5
# The cells were then resuspended finally at 50% and incubated for 60 minutes at 4°C, and aliquots were then dried at ambient temperature (evaporation cooled the samples) under a vacuum of less than 5 x 10^-2 mbar (50 Pa) for approximately 16 hours.
# The red cells were dried in aliquots of 250µl and the rehydration was inititated by the addition of 250µl of solution 1 to the dry aliquots. The cells were allowed to rehydrate slowly, and when in solution, 500µl of solution 2 was added. At this stage the cells were viewed under the microscope and the number of apparently intact cells was counted. A further 1 ml of solution 2 was then added and the cells were then centrifuged at 5,220 x g for 5 minutes. The supernatant was removed and the cells were resuspended in solution 2. For typing the red cell antigenic status, an equal volume of the red cells in solution 2 was added to an equal volume of an antibody mixed 1 : 1 with solution 1.
# The concentration of each sugar used was 10% (w/v). […]
# blood cells = experiment: Vacuum-drying of blood cells in trehalose without organic osmolyte, then rehydration; format: cell-based; details: result in words; vacuum-drying in the absence of an organic osmolyte
# platelets = experiment: Freeze-drying of platelets from Platelet Rich Plasma and recovery of whole platelets on rehydration (Example 5); format: cell-based; details: result in words
# Experimental: Blood was collected into the anti-coagulant, acid-citrate-dextrose, and the mixture then centrifuged at approximately 1100 x g for three minutes to harvest Platelet Rich Plasma.
# Aliquots of the Platelet Rich Plasma were then incubated in the presence of varying concentrations of proline, carnitine and trehalose on their own, and proline and carnitine in combination with trehalose, as well as a test sample in 7.5% NaCl. All samples were incubated for 37°C for 2 hours on a slowly moving rotary mixer, before freezing and drying.
# The dehydrated samples were rehydrated with either 1 volume of water, or 1 volume of water containing 2% carnitine. […] Results obtained when rehydrating with water in the presence of 2% carnitine were generally about 25% better than those achieved with water alone.
Compound,% Intact Cells (erythrocytes [1]; Final Concentration 5),% Intact Cells (erythrocytes [1]; Final Concentration 10),% Intact Cells (erythrocytes [1]; Final Concentration 15),% Intact Cells (erythrocytes [1]; Final Concentration 20),% Intact Cells (erythrocytes [2]),freeze drying of erythrocytes (erythrocytes [1]),% Intact Cells (erythrocytes [3]),% apparently intact cells (red cells),cells on rehydration (blood cells),platelets recovered on reconstitution (platelets)
"C[N+](C)(C)CC(=O)O [Betaine, betaine]",0%,35%,< 5%,0%,–,–,–,–,–,–
"C[N+](C)(C)CC(O)CC(=O)[O-] (stereo not drawn) [Carnitine, carnitine]",0%,< 1%,75%,62%,87%,particularly successful,70%,–,–,–
"O=C(O)[C@@H]1CCCN1 [Proline, proline]",0%,62%,81%,< 1%,79%,particularly successful,78%,67%,–,–
OC[C@H]1O[C@H](O[C@H]2O[C@H](CO)[C@@H](O)[C@H](O)[C@H]2O)[C@H](O)[C@@H](O)[C@@H]1O [trehalose],–,–,–,–,–,–,–,–,only a very small percentage of cells,almost exclusively 'ghost' platelets
